Reference: US20060069132A1, “Azolecarboxamide herbicides” (priority 2004, published 2006)

Columns and labels:
barnyardgrass [1] = assay: Test B pre-/postemergence herbicide test; type: in vivo, Echinochloa crus-galli; settings: for Barnyardgrass plant response rating (0 to 100 scale) / Plant response rating, Barnyardgrass: preemergence; for Barnyardgrass plant response rating: postemergence, scale 0 (no effect) to 100 (complete control)
Procedure, shortened: (§1)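 Pre: seeds sown, then sprayed. Post: 1–4-leaf plants (2–18 cm) sprayed at the same time. Paddy: flooded, treated at 2-leaf stage. Formulation: non-phytotoxic solvent with surfactant. Greenhouse 13–15 days; visual 0–100 score relative to controls.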

Surinam grass = assay: Test B pre-/postemergence herbicide test; type: in vivo, Urochloa decumbens; settings: for Surinam Grass plant response rating (0 to 100 scale) / Plant response rating, Surinam Grass: preemergence; for Surinam Grass plant response rating: postemergence, scale 0 (no effect) to 100 (complete control)
Procedure, shortened: (§2)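 Evaluation is visual, comparing treated with control plants on a scale where 0 means no effect and 100 means full control. Treatments were preemergence, or postemergence on seedlings 2–18 cm tall, and held 13–15 days in the greenhouse.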

cocklebur = assay: Test B pre-/postemergence herbicide test; type: in vivo, Xanthium strumarium; settings: for Cocklebur plant response rating (0 to 100 scale) / Plant response rating, Cocklebur: preemergence; for Cocklebur plant response rating: postemergence, scale 0 (no effect) to 100 (complete control)
Procedure, shortened: as §1

corn = assay: Test B pre-/postemergence herbicide test; type: in vivo, Zea mays; settings: for Corn plant response rating (0 to 100 scale) / Plant response rating, Corn: preemergence; for Corn plant response rating: postemergence, scale 0 (no effect) to 100 (complete control)
Procedure, shortened: as §2

large crabgrass = assay: Test B pre-/postemergence herbicide test; type: in vivo, Digitaria sanguinalis; settings: for Crabgrass, Large plant response rating (0 to 100 scale) / Plant response rating, Crabgrass, Large: preemergence; for Crabgrass, Large plant response rating: postemergence, scale 0 (no effect) to 100 (complete control)
Procedure, shortened: as §2

giant foxtail = assay: Test B pre-/postemergence herbicide test; type: in vivo, Setaria faberi; settings: for Foxtail, Giant plant response rating (0 to 100 scale) / Plant response rating, Foxtail, Giant: preemergence; for Foxtail, Giant plant response rating: postemergence, scale 0 (no effect) to 100 (complete control)
Procedure, shortened: as §2

lambsquarters = assay: Test B pre-/postemergence herbicide test; type: in vivo, Chenopodium album; settings: for Lambsquarters plant response rating (0 to 100 scale) / Plant response rating, Lambsquarters: preemergence; for Lambsquarters plant response rating: postemergence, scale 0 (no effect) to 100 (complete control)
Procedure, shortened: as §2

morningglory = assay: Test B pre-/postemergence herbicide test; type: in vivo, Ipomoea coccinea; settings: for Morningglory plant response rating (0 to 100 scale) / Plant response rating, Morningglory: preemergence; for Morningglory plant response rating: postemergence, scale 0 (no effect) to 100 (complete control)
Procedure, shortened: as §1

velvetleaf = assay: Test B pre-/postemergence herbicide test; type: in vivo, Abutilon theophrasti; settings: for Velvetleaf plant response rating (0 to 100 scale) / Plant response rating, Velvetleaf: preemergence; for Velvetleaf plant response rating: postemergence, scale 0 (no effect) to 100 (complete control)
Procedure, shortened: as §2

blackgrass = assay: Test B postemergence herbicide test; type: in vivo, Alopecurus myosuroides; settings: postemergence, visual rating, scale 0 (no effect) to 100 (complete control)
Procedure, shortened: (§3)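 Read-out: visual comparison with controls, scored 0 to 100, where 100 means complete control and 0 no effect. Formulated chemicals were applied postemergence to plants 2–18 cm tall (1- to 4-leaf), or to flooded-paddy plants at the 2-leaf stage, then held 13 to 15 days under glass.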

wheat = assay: Test B postemergence herbicide test; type: in vivo, Triticum aestivum; design: key to Wheat plant response rating: 0 = no effect, 100 = complete control; settings: postemergence, visual rating, scale 0 (no effect) to 100 (complete control)
Procedure, shortened: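 Scale 0–100: zero equals no visible effect, 100 complete control, judged by eye relative to controls. Timing: 13 to 15 days in greenhouse post-treatment. Growth stage at spraying: two leaves (paddy) or one to four leaves, 2–18 cm (postemergence).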

rice = assay: Test B flooded paddy test; type: in vivo, Oryza sativa; settings: 1000 g ai/ha, visual rating, scale 0 to 100 (0 no effect, 100 complete control), 13 to 15 days
Procedure, shortened: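 Each value is a visual 0–100 response rating taken against controls 13 to 15 days after treatment in the greenhouse. Plants received formulated chemical postemergence at the 1- to 4-leaf stage or, in flooded paddy, at the 2-leaf stage.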

[2] = system: small flower umbrella sedge; assay: Test B flooded paddy test; type: in vivo, Cyperus difformis; settings: 1000 g ai/ha, visual rating, scale 0 to 100 (0 no effect, 100 complete control), 13 to 15 days
Procedure, shortened: as §3

ducksalad = assay: Test B flooded paddy test; type: in vivo, Heteranthera limosa; settings: 1000 g ai/ha, visual rating, scale 0 to 100 (0 no effect, 100 complete control), 13 to 15 days
Procedure, shortened: as §3

barnyardgrass [3] = assay: Test B flooded paddy test; type: in vivo, Echinochloa crus-galli; settings: 1000 g ai/ha, visual rating, scale 0 to 100 (0 no effect, 100 complete control), 13 to 15 days
Procedure, shortened: as §3

[4] = 125 g ai/ha, 0 = no effect, 100 = complete control
[5] = 500 g ai/ha, visual rating 0-100, 0 no effect, 100 complete control
[6] = 500 g ai/ha, visual rating, 0 = no effect, 100 = complete control

## CCc1nn(C(C)(C)C)cc1C(=O)Nc1cccc(C(C)=NO)c1 [Compound 188]
Barnyardgrass [1]; [4]
  Barnyardgrass plant response rating (0 to 100 scale): 80
Barnyardgrass [1]; [5]
  Plant response rating, Barnyardgrass: 100
Barnyardgrass [1]; 125 g ai/ha, visual rating
  Barnyardgrass plant response rating: 10
Barnyardgrass [1]; 500 g ai/ha, visual rating
  Barnyardgrass plant response rating: 20
Surinam grass; [4]
  Surinam Grass plant response rating (0 to 100 scale): 30
Surinam grass; [5]
  Plant response rating, Surinam Grass: 70
Surinam grass; 125 g ai/ha, visual rating
  Surinam Grass plant response rating: 10
Surinam grass; 500 g ai/ha, visual rating
  Surinam Grass plant response rating: 10
cocklebur; [4]
  Cocklebur plant response rating (0 to 100 scale): 0
cocklebur; [5]
  Plant response rating, Cocklebur: 0
cocklebur; 125 g ai/ha, visual rating
  Cocklebur plant response rating: 20
cocklebur; 500 g ai/ha, visual rating
  Cocklebur plant response rating: 90
corn; [4]
  Corn plant response rating (0 to 100 scale): 10
corn; [5]
  Plant response rating, Corn: 50
corn; 125 g ai/ha, visual rating
  Corn plant response rating: 10
corn; 500 g ai/ha, visual rating
  Corn plant response rating: 20
Large crabgrass; [4]
  Crabgrass, Large plant response rating (0 to 100 scale): 100
Large crabgrass; [5]
  Plant response rating, Crabgrass, Large: 100
Large crabgrass; 125 g ai/ha, visual rating
  Crabgrass, Large plant response rating: 10
Large crabgrass; 500 g ai/ha, visual rating
  Crabgrass, Large plant response rating: 10
Giant foxtail; [4]
  Foxtail, Giant plant response rating (0 to 100 scale): 50
Giant foxtail; [5]
  Plant response rating, Foxtail, Giant: 100
Giant foxtail; 125 g ai/ha, visual rating
  Foxtail, Giant plant response rating: 10
Giant foxtail; 500 g ai/ha, visual rating
  Foxtail, Giant plant response rating: 10
lambsquarters; [4]
  Lambsquarters plant response rating (0 to 100 scale): 90
lambsquarters; [5]
  Plant response rating, Lambsquarters: 100
lambsquarters; 125 g ai/ha, visual rating
  Lambsquarters plant response rating: 60
lambsquarters; 500 g ai/ha, visual rating
  Lambsquarters plant response rating: 70
morningglory; [4]
  Morningglory plant response rating (0 to 100 scale): 10
morningglory; 125 g ai/ha, visual rating
  Morningglory plant response rating: 20
morningglory; 500 g ai/ha, visual rating
  Morningglory plant response rating: 60
velvetleaf; [4]
  Velvetleaf plant response rating (0 to 100 scale): 70
velvetleaf; [5]
  Plant response rating, Velvetleaf: 100
velvetleaf; 125 g ai/ha, visual rating
  Velvetleaf plant response rating: 10
velvetleaf; 500 g ai/ha, visual rating
  Velvetleaf plant response rating: 20
blackgrass; 125 g ai/ha
  Blackgrass plant response rating: 10
blackgrass; 500 g ai/ha
  Blackgrass plant response rating: 10
wheat; 125 g ai/ha
  Wheat plant response rating: 0
wheat; 500 g ai/ha
  Wheat plant response rating: 10
rice
  Rice plant response rating: 70
[2]
  Sedge, Umbrella plant response rating: 80
ducksalad
  Ducksalad plant response rating: 80
Barnyardgrass [3]
  Barnyardgrass plant response rating: 60

## C=CCNC(=O)c1cccc(NC(=O)c2sc(C(C)(C)C)nc2C)c1 [Compound 202]
Barnyardgrass [1]; [4]
  Barnyardgrass plant response rating (0 to 100 scale): 20
Barnyardgrass [1]; [5]
  Plant response rating, Barnyardgrass: 90
Barnyardgrass [1]; 125 g ai/ha, visual rating
  Barnyardgrass plant response rating: 0
Barnyardgrass [1]; 500 g ai/ha, visual rating
  Barnyardgrass plant response rating: 0
Surinam grass; [4]
  Surinam Grass plant response rating (0 to 100 scale): 0
Surinam grass; [5]
  Plant response rating, Surinam Grass: 60
Surinam grass; 125 g ai/ha, visual rating
  Surinam Grass plant response rating: 10
Surinam grass; 500 g ai/ha, visual rating
  Surinam Grass plant response rating: 10
cocklebur; [4]
  Cocklebur plant response rating (0 to 100 scale): 0
cocklebur; [5]
  Plant response rating, Cocklebur: 10
cocklebur; 125 g ai/ha, visual rating
  Cocklebur plant response rating: 30
cocklebur; 500 g ai/ha, visual rating
  Cocklebur plant response rating: 40
corn; [4]
  Corn plant response rating (0 to 100 scale): 0
corn; [5]
  Plant response rating, Corn: 20
corn; 125 g ai/ha, visual rating
  Corn plant response rating: 10
corn; 500 g ai/ha, visual rating
  Corn plant response rating: 10
Large crabgrass; [4]
  Crabgrass, Large plant response rating (0 to 100 scale): 60
Large crabgrass; [5]
  Plant response rating, Crabgrass, Large: 100
Large crabgrass; 125 g ai/ha, visual rating
  Crabgrass, Large plant response rating: 0
Large crabgrass; 500 g ai/ha, visual rating
  Crabgrass, Large plant response rating: 10
Giant foxtail; [4]
  Foxtail, Giant plant response rating (0 to 100 scale): 10
Giant foxtail; [5]
  Plant response rating, Foxtail, Giant: 90
Giant foxtail; 125 g ai/ha, visual rating
  Foxtail, Giant plant response rating: 10
Giant foxtail; 500 g ai/ha, visual rating
  Foxtail, Giant plant response rating: 10
lambsquarters; [4]
  Lambsquarters plant response rating (0 to 100 scale): 30
lambsquarters; [5]
  Plant response rating, Lambsquarters: 100
lambsquarters; 125 g ai/ha, visual rating
  Lambsquarters plant response rating: 50
lambsquarters; 500 g ai/ha, visual rating
  Lambsquarters plant response rating: 50
morningglory; [4]
  Morningglory plant response rating (0 to 100 scale): 0
morningglory; [5]
  Plant response rating, Morningglory: 30
morningglory; 125 g ai/ha, visual rating
  Morningglory plant response rating: 20
morningglory; 500 g ai/ha, visual rating
  Morningglory plant response rating: 40
velvetleaf; [4]
  Velvetleaf plant response rating (0 to 100 scale): 10
velvetleaf; [5]
  Plant response rating, Velvetleaf: 20
velvetleaf; 125 g ai/ha, visual rating
  Velvetleaf plant response rating: 10
velvetleaf; 500 g ai/ha, visual rating
  Velvetleaf plant response rating: 30
blackgrass; 125 g ai/ha
  Blackgrass plant response rating: 0
blackgrass; 500 g ai/ha
  Blackgrass plant response rating: 0
wheat; 125 g ai/ha
  Wheat plant response rating: 0
wheat; 500 g ai/ha
  Wheat plant response rating: 0
rice
  Rice plant response rating: 30
[2]
  Sedge, Umbrella plant response rating: 50
ducksalad
  Ducksalad plant response rating: 60
Barnyardgrass [3]
  Barnyardgrass plant response rating: 40

## CCc1nc(C(C)(C)C)sc1C(=O)Nc1cccc(C(=O)NCC2CC2)n1 [Compound 215]
Barnyardgrass [1]; [4]
  Barnyardgrass plant response rating (0 to 100 scale): 10
Barnyardgrass [1]; [6]
  Plant response rating, Barnyardgrass: 60
Barnyardgrass [1]; 125 g ai/ha, visual rating
  Barnyardgrass plant response rating: 0
Barnyardgrass [1]; 500 g ai/ha, visual rating
  Barnyardgrass plant response rating: 20
Surinam grass; [4]
  Surinam Grass plant response rating (0 to 100 scale): 0
Surinam grass; [6]
  Plant response rating, Surinam Grass: 70
Surinam grass; 125 g ai/ha, visual rating
  Surinam Grass plant response rating: 0
Surinam grass; 500 g ai/ha, visual rating
  Surinam Grass plant response rating: 10
cocklebur; [4]
  Cocklebur plant response rating (0 to 100 scale): 0
cocklebur; [6]
  Plant response rating, Cocklebur: 0
cocklebur; 125 g ai/ha, visual rating
  Cocklebur plant response rating: 20
cocklebur; 500 g ai/ha, visual rating
  Cocklebur plant response rating: 80
corn; [4]
  Corn plant response rating (0 to 100 scale): 0
corn; [6]
  Plant response rating, Corn: 0
corn; 125 g ai/ha, visual rating
  Corn plant response rating: 0
corn; 500 g ai/ha, visual rating
  Corn plant response rating: 10
Large crabgrass; [4]
  Crabgrass, Large plant response rating (0 to 100 scale): 0
Large crabgrass; [6]
  Plant response rating, Crabgrass, Large: 80
Large crabgrass; 125 g ai/ha, visual rating
  Crabgrass, Large plant response rating: 0
Large crabgrass; 500 g ai/ha, visual rating
  Crabgrass, Large plant response rating: 0
Giant foxtail; [4]
  Foxtail, Giant plant response rating (0 to 100 scale): 0
Giant foxtail; [6]
  Plant response rating, Foxtail, Giant: 80
Giant foxtail; 125 g ai/ha, visual rating
  Foxtail, Giant plant response rating: 0
Giant foxtail; 500 g ai/ha, visual rating
  Foxtail, Giant plant response rating: 20
lambsquarters; [4]
  Lambsquarters plant response rating (0 to 100 scale): 90
lambsquarters; [6]
  Plant response rating, Lambsquarters: 100
lambsquarters; 125 g ai/ha, visual rating
  Lambsquarters plant response rating: 0
lambsquarters; 500 g ai/ha, visual rating
  Lambsquarters plant response rating: 0
morningglory; [4]
  Morningglory plant response rating (0 to 100 scale): 10
morningglory; [6]
  Plant response rating, Morningglory: 20
morningglory; 125 g ai/ha, visual rating
  Morningglory plant response rating: 0
morningglory; 500 g ai/ha, visual rating
  Morningglory plant response rating: 40
velvetleaf; [4]
  Velvetleaf plant response rating (0 to 100 scale): 0
velvetleaf; [6]
  Plant response rating, Velvetleaf: 60
velvetleaf; 125 g ai/ha, visual rating
  Velvetleaf plant response rating: 40
velvetleaf; 500 g ai/ha, visual rating
  Velvetleaf plant response rating: 60
blackgrass; 125 g ai/ha
  Blackgrass plant response rating: 0
blackgrass; 500 g ai/ha
  Blackgrass plant response rating: 0
wheat; 125 g ai/ha
  Wheat plant response rating: 0
wheat; 500 g ai/ha
  Wheat plant response rating: 20
rice
  Rice plant response rating: 30
[2]
  Sedge, Umbrella plant response rating: 90
ducksalad
  Ducksalad plant response rating: 90
Barnyardgrass [3]
  Barnyardgrass plant response rating: 30
